# According to ChEMBL document CHEMBL4002630, “The design and synthesis of novel spirocyclic heterocyclic sulfone ROMK inhibitors as diuretics” (Bioorg Med Chem Lett, 2017):
# System: not listed separately
# Experiment: AUC (0 to t) in dog at 1 mg/kg, po
# Format: ADME, organism-based, Canis lupus familiaris
# Details: in vivo
row,AUC(0-t) [µM·h],SMILES
1,0.75,Cc1c([C@@H](O)CN2CCC3(CC2)CCN(c2cnc(S(C)(=O)=O)cn2)C3)ccc2c1COC2=O

# Target: T1, ATP-sensitive inward rectifier potassium channel 1 (Rattus norvegicus, UniProt P35560)
# T1 sequence (P35560 whole entry): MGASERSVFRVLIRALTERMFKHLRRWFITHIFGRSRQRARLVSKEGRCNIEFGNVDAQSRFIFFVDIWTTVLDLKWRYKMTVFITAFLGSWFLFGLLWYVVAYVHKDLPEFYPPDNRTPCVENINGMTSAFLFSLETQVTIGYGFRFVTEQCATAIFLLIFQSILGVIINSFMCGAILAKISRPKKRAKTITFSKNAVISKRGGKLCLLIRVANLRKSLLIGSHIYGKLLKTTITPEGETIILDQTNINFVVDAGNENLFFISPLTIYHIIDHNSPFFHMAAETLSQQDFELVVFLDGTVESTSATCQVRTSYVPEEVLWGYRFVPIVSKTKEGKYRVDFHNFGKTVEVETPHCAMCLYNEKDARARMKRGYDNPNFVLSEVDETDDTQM
# Experiment: Inhibition of rat ROMK expressed in HEK293 cells after 30 mins by thallium flux assay
# Format: cell-based
# Details: not given
row,IC50 [nM],SMILES
1,40,Cc1c([C@@H](O)CN2CCC3(CC2)CCN(c2cnc(S(C)(=O)=O)cn2)C3)ccc2c1COC2=O
2,60,Cc1c([C@@H](O)CN2CCC3(CC2)CC(=O)N(c2cnc(S(C)(=O)=O)cn2)C3)ccc2c1COC2=O

# System: not listed separately
# Experiment: in vivo
# Details: rat, iv, 0.5 mg/kg
row,Vd [L/kg],SMILES
1,5.6,Cc1c([C@@H](O)CN2CCC3(CC2)CCN(c2cnc(S(C)(=O)=O)cn2)C3)ccc2c1COC2=O
2,3.8,Cc1c([C@@H](O)CN2CCC3(CC2)CC(=O)N(c2cnc(S(C)(=O)=O)cn2)C3)ccc2c1COC2=O

# Target: T2, Voltage-gated inwardly rectifying potassium channel KCNH2 (Homo sapiens, UniProt Q12809)
# Experiment: not given
# Details: not given
# T2 sequence (Q12809 whole entry): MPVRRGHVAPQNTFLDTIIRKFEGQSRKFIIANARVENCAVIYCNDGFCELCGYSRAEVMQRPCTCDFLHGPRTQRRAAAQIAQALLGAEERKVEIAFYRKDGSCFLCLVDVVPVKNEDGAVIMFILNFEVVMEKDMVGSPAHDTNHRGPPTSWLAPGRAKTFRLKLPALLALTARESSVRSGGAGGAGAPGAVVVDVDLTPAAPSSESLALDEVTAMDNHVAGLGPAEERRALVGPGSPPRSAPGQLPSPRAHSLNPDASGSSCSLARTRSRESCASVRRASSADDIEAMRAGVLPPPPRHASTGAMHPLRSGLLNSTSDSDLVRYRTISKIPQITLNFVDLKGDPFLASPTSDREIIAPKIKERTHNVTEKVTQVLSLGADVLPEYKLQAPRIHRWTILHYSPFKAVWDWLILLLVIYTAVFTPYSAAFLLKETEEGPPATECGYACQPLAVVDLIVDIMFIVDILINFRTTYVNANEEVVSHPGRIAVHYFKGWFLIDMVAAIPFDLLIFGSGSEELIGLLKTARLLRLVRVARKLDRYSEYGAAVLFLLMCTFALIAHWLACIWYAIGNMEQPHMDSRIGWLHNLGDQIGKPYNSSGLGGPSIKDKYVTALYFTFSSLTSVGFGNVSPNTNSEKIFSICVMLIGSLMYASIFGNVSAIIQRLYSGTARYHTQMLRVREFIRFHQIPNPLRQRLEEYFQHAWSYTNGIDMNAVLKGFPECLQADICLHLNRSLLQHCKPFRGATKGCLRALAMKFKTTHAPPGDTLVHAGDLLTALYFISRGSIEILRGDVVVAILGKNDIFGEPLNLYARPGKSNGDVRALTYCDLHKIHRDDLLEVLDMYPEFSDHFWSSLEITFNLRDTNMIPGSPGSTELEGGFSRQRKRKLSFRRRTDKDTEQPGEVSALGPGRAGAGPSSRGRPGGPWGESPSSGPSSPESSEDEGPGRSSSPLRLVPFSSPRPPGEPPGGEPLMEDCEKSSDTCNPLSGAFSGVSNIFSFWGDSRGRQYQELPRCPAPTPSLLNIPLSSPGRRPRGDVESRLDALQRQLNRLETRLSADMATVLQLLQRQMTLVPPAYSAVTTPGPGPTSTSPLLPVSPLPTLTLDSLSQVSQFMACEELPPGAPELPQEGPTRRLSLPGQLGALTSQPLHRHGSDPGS
row,SMILES,IC50 [nM]
1,Cc1c([C@@H](O)CN2CCC3(CC2)CCN(c2cnc(S(C)(=O)=O)cn2)C3)ccc2c1COC2=O,8900

# System: Rattus norvegicus
# Experiment: Antihypertensive activity in rat spontaneous hypertensive model assessed as change in systolic blood pressure at 3 mg/kg, po measured after 3 days
# Format: functional
# Details: not given
row,SMILES,Activity [mmHg]
1,Cc1c([C@@H](O)CN2CCC3(CC2)CCN(c2cnc(S(C)(=O)=O)cn2)C3)ccc2c1COC2=O,-19.9
2,Cc1c([C@@H](O)CN2CCC3(CC2)CC(=O)N(c2cnc(S(C)(=O)=O)cn2)C3)ccc2c1COC2=O,-16

# System: not listed separately
# Experiment: in vivo
# Details: rat, po, 1 mg/kg
row,bioavailability [%],SMILES
1,37,Cc1c([C@@H](O)CN2CCC3(CC2)CCN(c2cnc(S(C)(=O)=O)cn2)C3)ccc2c1COC2=O
2,46,Cc1c([C@@H](O)CN2CCC3(CC2)CC(=O)N(c2cnc(S(C)(=O)=O)cn2)C3)ccc2c1COC2=O

# Species on record: Rattus norvegicus
# Experiment: not given
# Details: in vivo, iv, 0.5 mg/kg
row,clearance [mL/min/kg],SMILES
1,37,Cc1c([C@@H](O)CN2CCC3(CC2)CCN(c2cnc(S(C)(=O)=O)cn2)C3)ccc2c1COC2=O
2,30,Cc1c([C@@H](O)CN2CCC3(CC2)CC(=O)N(c2cnc(S(C)(=O)=O)cn2)C3)ccc2c1COC2=O

# Target: T3, ATP-sensitive inward rectifier potassium channel 1 (Homo sapiens, UniProt P48048)
# T3 sequence (P48048 whole entry): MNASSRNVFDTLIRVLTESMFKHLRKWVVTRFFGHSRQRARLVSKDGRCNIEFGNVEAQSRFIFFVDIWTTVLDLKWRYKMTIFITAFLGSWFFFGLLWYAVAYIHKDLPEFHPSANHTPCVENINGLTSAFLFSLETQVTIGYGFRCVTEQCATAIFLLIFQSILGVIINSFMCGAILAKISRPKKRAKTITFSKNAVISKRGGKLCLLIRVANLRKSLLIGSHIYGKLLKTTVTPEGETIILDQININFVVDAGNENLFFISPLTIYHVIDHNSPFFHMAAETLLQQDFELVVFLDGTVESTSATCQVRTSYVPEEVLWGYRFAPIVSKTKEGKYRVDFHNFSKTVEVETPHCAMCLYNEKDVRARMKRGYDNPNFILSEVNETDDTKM
# Experiment: Inhibition of human ROMK expressed in CHO cells by electrophysiology method
# Format: cell-based
# Details: not given
row,IC50 [nM],SMILES
1,37,Cc1c([C@@H](O)CN2CCC3(CC2)CCN(c2cnc(S(C)(=O)=O)cn2)C3)ccc2c1COC2=O
2,34,Cc1c([C@@H](O)CN2CCC3(CC2)CC(=O)N(c2cnc(S(C)(=O)=O)cn2)C3)ccc2c1COC2=O

# Target: T2, Voltage-gated inwardly rectifying potassium channel KCNH2
# Experiment: Inhibition of human ERG by electrophysiology method
# Details: not given
row,SMILES,IC50 [nM]
1,Cc1c([C@@H](O)CN2CCC3(CC2)CCN(c2cnc(S(C)(=O)=O)cn2)C3)ccc2c1COC2=O,22700

# Species on record: Homo sapiens
# Experiment: Selectivity ratio of IC50 for human ERG to IC50 for human ROMK expressed in CHO cells by electrophysiology method
# Format: cell-based
# Details: not given
row,SMILES,Ratio IC50
1,Cc1c([C@@H](O)CN2CCC3(CC2)CCN(c2cnc(S(C)(=O)=O)cn2)C3)ccc2c1COC2=O,614

# System: not listed separately
# Experiment: Clearance in dog at 1 mg/kg, po or 0.5 mg/kg, iv
# Format: ADME, organism-based, Canis lupus familiaris
# Details: in vivo
row,clearance [mL/min/kg],SMILES
1,42,Cc1c([C@@H](O)CN2CCC3(CC2)CCN(c2cnc(S(C)(=O)=O)cn2)C3)ccc2c1COC2=O

# System: not listed separately
# Experiment: Drug uptake in plasma of rat spontaneous hypertensive model at 3 mg/kg, po measured after 3 days
# Format: ADME, organism-based
# Details: spontaneously hypertensive rat
row,concentration at 72 h [nM],SMILES
1,78,Cc1c([C@@H](O)CN2CCC3(CC2)CCN(c2cnc(S(C)(=O)=O)cn2)C3)ccc2c1COC2=O
2,232,Cc1c([C@@H](O)CN2CCC3(CC2)CC(=O)N(c2cnc(S(C)(=O)=O)cn2)C3)ccc2c1COC2=O

# Species on record: Rattus norvegicus
# Experiment: not given
# Details: in vivo, po, 1 mg/kg
row,AUC/dose [µM·kg·h/mg],SMILES
1,0.4,Cc1c([C@@H](O)CN2CCC3(CC2)CCN(c2cnc(S(C)(=O)=O)cn2)C3)ccc2c1COC2=O
2,0.5,Cc1c([C@@H](O)CN2CCC3(CC2)CC(=O)N(c2cnc(S(C)(=O)=O)cn2)C3)ccc2c1COC2=O

# System: not listed separately
# Experiment: in vivo
# Details: rat
row,half-life [h],SMILES
1,2.1,Cc1c([C@@H](O)CN2CCC3(CC2)CCN(c2cnc(S(C)(=O)=O)cn2)C3)ccc2c1COC2=O
2,2.4,Cc1c([C@@H](O)CN2CCC3(CC2)CC(=O)N(c2cnc(S(C)(=O)=O)cn2)C3)ccc2c1COC2=O

# System: not listed separately
# Experiment: Volume of distribution at steady state in dog at 1 mg/kg, po or 0.5 mg/kg, iv
# Format: ADME, organism-based, Canis lupus familiaris
# Details: in vivo, read-out: Vdss
row,Vd [L/kg],SMILES
1,17.8,Cc1c([C@@H](O)CN2CCC3(CC2)CCN(c2cnc(S(C)(=O)=O)cn2)C3)ccc2c1COC2=O

# Species on record: Homo sapiens
# Experiment: Selectivity ratio of IC50 for human ERG expressed in HEK293 cells to IC50 for human ROMK expressed in HEK293 cells
# Format: cell-based
# Details: not given
row,SMILES,Ratio IC50
1,Cc1c([C@@H](O)CN2CCC3(CC2)CCN(c2cnc(S(C)(=O)=O)cn2)C3)ccc2c1COC2=O,202

# System: not listed separately
# Experiment: Half life in rhesus monkey at 0.5 mg/kg, iv
# Format: ADME, organism-based, Macaca mulatta
# Details: in vivo
row,half-life [h],SMILES
1,1.8,Cc1c([C@@H](O)CN2CCC3(CC2)CCN(c2cnc(S(C)(=O)=O)cn2)C3)ccc2c1COC2=O

# System: not listed separately
# Experiment: Oral bioavailability in dog at 1 mg/kg
# Format: ADME, organism-based, Canis lupus familiaris
# Details: in vivo
row,bioavailability [%],SMILES
1,67,Cc1c([C@@H](O)CN2CCC3(CC2)CCN(c2cnc(S(C)(=O)=O)cn2)C3)ccc2c1COC2=O

# System: not listed separately
# Experiment: Half life in dog at 1 mg/kg, po or 0.5 mg/kg, iv
# Format: ADME, organism-based, Canis lupus familiaris
# Details: in vivo
row,half-life [h],SMILES
1,8.6,Cc1c([C@@H](O)CN2CCC3(CC2)CCN(c2cnc(S(C)(=O)=O)cn2)C3)ccc2c1COC2=O

# System: Rhesus monkey
# Experiment: AUC (0 to t) in rhesus monkey at 0.5 mg/kg, iv
# Format: ADME, organism-based, Macaca mulatta
# Details: in vivo
row,AUCt [µM·h],SMILES
1,0.61,Cc1c([C@@H](O)CN2CCC3(CC2)CCN(c2cnc(S(C)(=O)=O)cn2)C3)ccc2c1COC2=O

# System: not listed separately
# Experiment: Volume of distribution at steady state in rhesus monkey at 0.5 mg/kg, iv
# Format: ADME, organism-based, Macaca mulatta
# Details: in vivo, read-out: Vdss
row,Vd [L/kg],SMILES
1,7,Cc1c([C@@H](O)CN2CCC3(CC2)CCN(c2cnc(S(C)(=O)=O)cn2)C3)ccc2c1COC2=O
